Laboratory results: US9737495B2, “Process for obtaining purified pterostilbene and methods of use thereof” (Indus Biotech Private Limited, priority 2009, dated 2017)
Like-named read-outs stand apart in the source and are kept apart here.

Assays:
3-NP induced HD in rats [1] = test: 3-NP induced HD in rats: neurological behavioral grading; format: in vivo, Wistar rats; conditions: for neurological behavioral changes (neurological problems score, grades 0-5) / neurological score, % change from cyclo + 3-NPA treatment: 30 mg/kg p.o. + 3-NPA
Description: (§1) 3-NP (20 mg/kg i.p., daily in 2 divided doses) was administered to all the Wistar rats of weight range 250-300 g. in two divided doses at 12 hr interval for 9-11 days until disease is induced (acutely ill). It took 12 days to completely induce the disease symptoms. 3-NP was diluted with water and the pH will be adjusted upto 7.4 with NaOH. It was administered intraperitoneally (i.p.) at a dose of 10 mg/kg every 12 hrs (8:00 am and 8:00 pm) for 12 days (total daily dose 20 mg/kg). The observations were done on day 0, 7, 9, 11 and 13. The test compound was administered for the same period p.o. (per oral) one hour before 3-NP injection (at 7:00 AM daily) at dose of 30 mg/kg, p.o. The experimental groups were as follows: 1) Healthy Control: No treatment 2) HD control (3-NP+cyclodextrin) 3) TEST COMPOUND (30 mg/kg, p.o. daily complexed with cyclodextrin) treated.
Behavioral changes were recorded daily, and immediately before sacrifice, graded according to the neurological scale described. A total of 6 grades included: • Grade 0: normal behavior; • Grade 1: general slowness in movement due to mild hind-limb impairment; • Grade 2: prominent gait abnormality with poor coordination; • Grade 3: nearly complete hind-limb paralysis; • Grade 4: incapability to move due to four-limb impairment; and • Grade 5: recumbence.

3-NP induced HD in rats [2] = test: 3-NP induced HD in rats: body weight; format: in vivo, Wistar rats; conditions: for % difference of body weights: 30 mg/kg p.o. daily complexed with cyclodextrin + 3-NPA 20 mg/kg/day i.p., n=6
Description: as §1

[3] = molecular target: T1, Human recombinant deacetylase sirtuin SIRT2 (Homo sapiens, UniProt Q8IXJ6); test: SIRT2 inhibition, Fluor de Lys fluorimetric deacetylase assay (in vitro); format: biochemical; conditions: read-out: IC50 for SIRT2 (converted)
T1 construct: host or cells: E. coli
T1 sequence (Q8IXJ6 1-389): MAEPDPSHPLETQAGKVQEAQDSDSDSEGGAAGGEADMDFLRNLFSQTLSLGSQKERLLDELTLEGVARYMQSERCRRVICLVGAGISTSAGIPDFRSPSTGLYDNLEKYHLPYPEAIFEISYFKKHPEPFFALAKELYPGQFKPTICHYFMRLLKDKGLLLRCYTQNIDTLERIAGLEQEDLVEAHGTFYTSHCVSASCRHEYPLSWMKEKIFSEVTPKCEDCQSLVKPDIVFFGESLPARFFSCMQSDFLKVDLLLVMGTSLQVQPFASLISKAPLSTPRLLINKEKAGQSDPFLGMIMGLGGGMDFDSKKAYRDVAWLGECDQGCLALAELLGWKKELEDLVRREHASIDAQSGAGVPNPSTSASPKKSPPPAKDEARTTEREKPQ
Description: (§2) Human recombinant deacetylase sirtuin SIRT2 expressed in E. coli was used. Test compound (1, 10, 100 and 1000 μg/ml conc.) and/or vehicle was pre-incubated with 2 μg/ml enzyme in Tris-HCl buffer pH 8.0 for 15 minutes at 37° C. The reaction is initiated by addition of 25 μM Fluor de Lys-SIRT1 and 150 μM NAD for another 120 minute incubation period and is terminated by further addition of Fluor de Lys Developer. Determination of the amount of de-acetate Fluor de Lys formed is read spectrofluorimetrically with excitation at 360 nm and emission at 465 nm. The concentration-response (% inhibition) curve was plotted and IC50 was calculated.
as §2, with “37 °C.” for “37° C.”

SIRT1 = molecular target: T2, SIRT1 (Homo sapiens, UniProt Q96EB6); test: SIRT1 inhibition, Fluor de Lys fluorimetric deacetylase assay (in vitro); format: biochemical; conditions: read-out: IC50 for SIRT1 (converted)
T2 sequence (Q96EB6 1-747): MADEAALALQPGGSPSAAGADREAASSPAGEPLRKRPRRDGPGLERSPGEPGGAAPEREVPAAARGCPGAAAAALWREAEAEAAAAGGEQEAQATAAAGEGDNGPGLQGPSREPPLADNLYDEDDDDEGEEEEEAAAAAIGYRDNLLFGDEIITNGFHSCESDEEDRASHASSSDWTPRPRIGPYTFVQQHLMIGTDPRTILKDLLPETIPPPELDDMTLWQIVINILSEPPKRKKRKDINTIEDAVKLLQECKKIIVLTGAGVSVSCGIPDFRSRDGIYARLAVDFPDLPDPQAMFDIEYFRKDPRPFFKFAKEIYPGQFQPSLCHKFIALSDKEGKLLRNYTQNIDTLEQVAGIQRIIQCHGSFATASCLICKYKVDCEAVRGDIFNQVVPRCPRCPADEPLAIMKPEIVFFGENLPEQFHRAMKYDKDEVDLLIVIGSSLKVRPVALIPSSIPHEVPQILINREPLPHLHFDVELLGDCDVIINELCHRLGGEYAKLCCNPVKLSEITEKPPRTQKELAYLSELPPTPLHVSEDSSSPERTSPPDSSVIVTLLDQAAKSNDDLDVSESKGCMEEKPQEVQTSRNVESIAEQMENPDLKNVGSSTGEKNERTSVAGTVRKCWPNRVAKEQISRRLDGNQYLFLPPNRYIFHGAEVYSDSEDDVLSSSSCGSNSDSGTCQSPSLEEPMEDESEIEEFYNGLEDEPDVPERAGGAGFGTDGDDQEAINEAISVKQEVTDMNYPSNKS

3-NP induced HD in rats [4] = test: 3-NP induced HD in rats: brain wet weight; format: in vivo, Wistar rats; conditions: Day 13, 30 mg/kg p.o. + 3-NPA
Description: as §1
On day 13, the brains of the rats were dissected out and cleaned. The wet weight of the brains were recorded for each rat. The results are also graphically represented in FIG. 3
On day 13, the brains of the rats were dissected out and cleaned. The wet weight of the brains were recorded for each rat.

3-NP induced HD in rats [5] = test: 3-NP induced HD in rats: squares crossed in open field test; format: in vivo, Wistar rats; conditions: 30 mg/kg p.o. + 3-NPA
Description: as §1

[6] = test conc. 1-1000 μg/ml, pH 8.0, 37° C.

COc1cc(/C=C/c2ccc(O)cc2)cc(OC)c1 [Test compound, pterostilbene]
neurological behavioral changes (neurological problems score, grades 0-5) (3-NP induced HD in rats [1]; Day 7): 0 | neurological behavioral changes (neurological problems score, grades 0-5) (3-NP induced HD in rats [1]; Day 9): 1 | neurological score, % change from cyclo + 3-NPA treatment (3-NP induced HD in rats [1]; Day 9): −83.33% | neurological behavioral changes (neurological problems score, grades 0-5) (3-NP induced HD in rats [1]; Day 11): 7 | neurological score, % change from cyclo + 3-NPA treatment (3-NP induced HD in rats [1]; Day 11): −30% | neurological behavioral changes (neurological problems score, grades 0-5) (3-NP induced HD in rats [1]; Day 13 (after 12-day treatment)): 13 | neurological score, % change from cyclo + 3-NPA treatment (3-NP induced HD in rats [1]; Day 13): −23.52% | reduction of neurological problems as compared to vehicle (cyclo+3-NPA) group (3-NP induced HD in rats [1]; after 12-day treatment (Day 13), 30 mg/kg p.o.): 23.52% | % difference of body weights (3-NP induced HD in rats [2]; Day 7): 1.90 ± 3.72% | % difference of body weights (3-NP induced HD in rats [2]; Day 9): −0.82 ± 3.77% | % difference of body weights (3-NP induced HD in rats [2]; Day 11): −2.53 ± 3.70% | % difference of body weights (3-NP induced HD in rats [2]; Day 13): −6.08 ± 4.10% | reduction in body weight (3-NP induced HD in rats [2]; after 11 days, 30 mg/kg p.o. + 3-NP (3-NP alone 12.48%)): 2.53% | IC50 ([3]; conversion of the μg/ml value): 45 µM | IC50 [3, 6]: 45.6 µM | IC50 (SIRT1; conversion of the μg/ml value): 47 µM | IC50 (SIRT1; [6]): 47.2 µM | Brain weight (g)-Mean ± SEM (3-NP induced HD in rats [4]): 1.605 ± 0.0659 g | number of squares crossed in open field test (3-NP induced HD in rats [5]; Day 7): 144.17 ± 7.47 | number of squares crossed in open field test (3-NP induced HD in rats [5]; Day 9): 125.67 ± 6.22 | number of squares crossed in open field test (3-NP induced HD in rats [5]; Day 11): 109.00 ± 13.72 | number of squares crossed in open field test (3-NP induced HD in rats [5]; Day 13): 77.83 ± 6.92
